Nine molecules from patent US20240270748A1 (Merck Patent GmbH, priority 2021, published 2024) can be followed below.

Bounds are passed on as bounds.

The test system of series [1] is NCI-H226 human mesothelioma tumor cells. Kind of series: NCI-H226 in vivo efficacy study. The note with it: H2d Rag2 female mice, subcutaneous NCI-H226 tumors, po qd for 29 days. The method, then: NCI-H226 In Vivo Efficacy Study
7-9-week-old H2d Rag2 female mice (own breeding, Taconic-Denmark) were inoculated subcutaneously with 5×10^6 NCI-H226 human mesothelioma tumor cells in the right flank. Tumor growth and body weight was measured twice weekly using caliper. Tumor volume was calculated using the formula TV=L×W×W/2.
When tumor volume reached approximately 75-150 mm^3, animals were randomized (Day 0) into treatment groups (n=9-10/group) and treated perorally (po) once daily (qd) for 29 days with either vehicle (20% hydroxypropyl β-cyclodextrin in 50 mM PBS pH 7.4) or Compound no. 2. Compound no. 2 was tested at dosing levels of 1, 3, 10, 30, and 100 mg/kg, respectively. Results are depicted in FIG. 1 (tumor growth over time for vehicle group and each dosage group) and FIG. 2 (final tumor volume of vehicle group and each dosage group).
Statistical analysis of tumor volumes between treatment groups was done using repeated measures analysis of covariance (RM-ANCOVA) in a linear mixed effects model followed by least-squares means pairwise comparisons.
The animal experiment was performed under regulation of the German animal welfare act and in accordance with the EU laboratory animal directive for the area of animal experiments.

Series [2] has as its system NCI-H226 cells. Kind of series: Viability assay in NCI-H226 (Yap-dependent) cells, CyQuant. In kind it is cell-based, human. As to conditions: Homo sapiens, class symbols. Put shortly:
(§1)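 Seeded cells were dosed 24 h later in duplicate (10-point, 1:3 dilutions, top 30 μM final, 0.3% DMSO) and incubated 96 h at 37 °C. Viability was read with CyQUANT DNA dye after 1 h, fluorescence bottom read. NCI-H226 in RPMI 1640 medium; SW620 YAP/TAZ CRISPR knockout in DMEM/F-12 medium.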

The test system of series [3] is YAP-TEAD interaction. Kind of series: SK-HEP-1 reporter assay (8xTEAD responsive elements driving NanoLuc luciferase). In kind it is cell-based. The note with it: Homo sapiens, SK-HEP1, SK-HEP-1 reporter assay; class symbols. The method in brief:
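Reporter read-out: NanoLuc luminescence from 8×TEAD elements stably integrated in SK-HEP-1 cells, after 24 h compound exposure at 37° C. Ten concentrations tested in duplicate, top 30 μM final, 0.3% DMSO; IC50 from curve.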

Series [4] concerns SW620 Yap KO cells. Kind of series: Viability assay in SW620 Yap KO (Yap independent) cells, CyQuant. In kind it is cell-based. As to conditions: Homo sapiens, SW-620, 96 h, class symbols. Put shortly: as §1

Consider `Cn1cc2c3cc(C(=O)O)ccc3n(-c3ccc(C(F)(F)F)cc3)c2n1` [Example 2, 2-methyl-8-[4-(trifluoromethyl)phenyl]-2H,8H-pyrazolo[3,4-b]indole-5-carboxylic acid], for which the “dosing levels showing maximal inhibition of tumor growth” value in series [1] is more than 10 mg/kg. Also, the “tumor growth inhibition compared to vehicle treated group” value in series [1] (all tested dosing levels 1, 3, 10, 30, 100 mg/kg, p-value <0.001) is “Significant tumor growth inhibition”.
The melting point is the temperature of the solid-liquid transition. On to `C=CC(=O)Nc1ccc2c(c1)c1cn(C)nc1n2-c1ccc(C(F)(F)F)cc1` [Example 20, N-[2-methyl-8-[4-(trifluoromethyl)phenyl]pyrazolo[3,4-b]indol-5-yl]prop-2-enamide], for which the melting point lay within 223 to 224 °C.
Same read-out and setting: then `C=CC(=O)NCc1ccc2c(c1)c1cn(C)nc1n2-c1ccc(C(F)(F)F)cc1` [Example 21, N-([2-methyl-8-[4-(trifluoromethyl)phenyl]pyrazolo [3,4-b]indol-5-yl]methyl)prop-2-enamide], with 185 to 187 °C.
As usually defined, the IC50 is the concentration at which inhibition is half-maximal. The low end stands for inhibition by little substance, the high end for a need for much substance. The molecule `Cn1cc2c3cc(CNC(=O)CCl)ccc3n(-c3ccc(C(F)(F)F)cc3)c2n1` [Example 24, 2-chloro-N-([2-methyl-8-[4-(trifluoromethyl)phenyl]pyrazolo[3,4-b]indol-5-yl]methyl)acetamide] registered a melting point of 221 to 222 °C. This molecule also came in with an IC50 in series [2] (96 h) of 100 to 1000 nM. The molecule further returned an IC50 in series [3] of 100 to 10000 nM. The molecule further showed an IC50 in series [4] of 1 to 10 µM.
Consider `Cc1nc2c(s1)c1cc(C(=O)O)ccc1n2-c1ccc(C(F)(F)F)cc1` [Example 25, 2-methyl-4-[4-(trifluoromethyl)phenyl]-[1,3]thiazolo[4,5-b]indole-7-carboxylic acid], for which the melting point fell in the range of 169 to 171 °C.
Consider `Cn1cc2c3cc(C(=O)NC4CC4)ccc3n(-c3ccc(C(F)(F)F)nc3)c2n1` [Example 27, N-cyclopropyl-2-methyl-8-[6-(trifluoromethyl)pyridin-3-yl]-2H,8H-pyrazolo[3,4-b]indole-5-carboxamide], for which the melting point came to 300 °C.
On the same count and under the same terms, in the case of `Cn1cc2c3cc(C(=O)NCc4ccncc4)ccc3n(-c3ccc(C(F)(F)F)cc3)c2n1` [Example 28, 2-methyl-N-[(pyridin-4-yl)methyl]-8-[4-(trifluoromethyl)phenyl]-2H, 8H-pyrazolo[3,4-b]indole-5-carboxamide] it was 181 to 185 °C; in that of `Cn1cc2c3cc(C(=O)O[C@@H]4O[C@H](C(=O)O)[C@@H](O)[C@H](O)[C@H]4O)ccc3n(-c3ccc(C(F)(F)F)cc3)c2n1` [Example 30, (2S,3S,4S,5R,6S)-3,4,5-trihydroxy-6-{2-methyl-8-[4-(trifluoromethyl)phenyl]-2H,8H-pyrazolo[3,4-b]indole-5-carbonyloxy}oxane-2-carboxylic acid], 110 to 111 °C.
Regarding `C[C@@H](CO)NS(=O)(=O)c1ccc2c(c1)c1nnn(C)c1n2-c1ccc(C(F)(F)F)cc1` [Example 38, N-[(2S)-1-hydroxypropan-2-yl]-3-methyl-4-[4-(trifluoromethyl)phenyl]-3H,4H-[1,2,3]triazolo[4,5-b]indole-7-sulfonamide], the melting point lay within 232 to 234 °C. In series [2] (NCI-H226, 96 h), this molecule had an IC50 of more than 10000 nM. In series [3], this molecule came in with an IC50 of 10 to 100 nM. In addition, the IC50 in series [4] was more than 30 µM.
